Test results from patent US20080262009A1, “CRYSTALLINE POLYMORPHS OF N-(3-(DIMETHYLAMINO)PROPYL)-4-(4-(3-FLUORO-4-METHOXYPHENYL) PYRIMIDIN-2-YLAMINO) BENZENESULFONAMIDE AS ACETATE SALTS” (Wyeth, priority 2007, published 2008).

Legend:
Water solubility = assay: Water solubility
Description: HCl, phosphoric acid, tartaric acid, acetic acid, D-glucoronic acid and succinic acid were used to prepare pharmaceutically acceptable salts of compound 3.

[1] = Solubility in organic solvents / group 3 solvents; assay type: physicochemical

SMILES | solubility (Water solubility; water) [µg/mL] | solubility in THF, DMSO and DMF ([1]; THF, DMSO and DMF) | solubility in group 3 solvents, including water ([1]; group 3 solvents, including water) | Solubility in water (Water solubility; by a thermogravimeteric method) | water solubility (in words) (Water solubility; free base form, general statement)
CC(=O)O.COc1ccc(-c2ccnc(Nc3ccc(S(=O)(=O)NCCCN(C)C)cc3)n2)cc1F [acetate salt of compound 3] | 3500 |  |  |  | 
COc1ccc(-c2ccnc(Nc3ccc(S(=O)(=O)NCCCN(C)C)cc3)n2)cc1F [compound 3] |  | high | low | not detectable | little to no
